The source of these data is article PMC11984905, “Chiral Switch of Gadopiclenol: New Standards in MRI Probes” (Advanced Science, 2025).

Data set [1] is described as follows: Stability and protonation constants of Zn(II)-complexes (pH-potentiometry). It counts as physicochemical. The settings on record: 0.15 M NaCl, 25 °C. On the procedure:
(§1) The protonation constants of ligands, the stability and protonation constants of Ca(II)‐ and Zn(II)‐complexes formed with rac‐L1, ent‐L1, rac‐L2, and ent‐L2 ligands were determined by pH‐potentiometric titration. The metal‐to‐ligand concentration ratio was 1:1 (the concentration of the ligand was generally 0.002 M). The protonation constants of the Cu(II)‐ and Gd(III)‐complexes were determined using pH‐potentiometry by titrating the pre‐prepared complexes from pH 2.0 to 12.0 with 0.2 M NaOH. The stability constants of the Gd(III)‐complexes with rac‐L1 and ent‐L1 ligands were determined by the “out‐of‐cell” technique because of their slow formation reaction. The pH range of the complexation equilibria and the time needed to reach the equilibria were determined by relaxometry. Eight–eight Gd(III) – rac‐L1 and Gd(III) – ent‐L1 samples were prepared, with pH values in the range of 1.7–3.0 at equilibrium ([Gd^3+] = [L] = 0.002 M). The samples were kept at 25 °C for 6 weeks to reach equilibrium. For the calculation of the stability constants of the [Gd(rac‐L1)]^3− and [Gd(ent‐L1)]^3− complexes, besides the protonation constants of ligands and the Gd(III) complexes, the stability constants of the di‐protonated [^*Gd(H2 rac‐L1)]^− and [^*Gd(H2 […])]^− out‐of‐cage complexes (considered as intermediates) was also used as fixed values, which were calculated from the pH‐potentiometric titration curve of the Gd(III) – rac‐L1 and Gd(III) – ent‐L1 system obtained in the pH range of 1.7–7.0.
(§2) For the pH measurements and titrations, the Metrohm 888 Titrando titration workstation Metrohm‐6.0234.110 combined electrode was used. Equilibrium measurements were carried out at a constant ionic strength (0.15 M NaCl) in 6 mL samples at 25 °C. The solutions were stirred, and N2 was bubbled through them. The titrations were made in the pH range 1.7–12.0. KH‐Phthalate (pH 4.005) and borax (pH 9.177) buffers were used to calibrate the pH meter. For the calculation of [H^+] from the measured pH values, the method proposed by Irving et al. was used as follows.^[ [46] ^] A 0.01M HCl solution was titrated with standardized NaOH solution at 0.15 M NaCl ionic strength. The differences (A) between the measured (pHread) and calculated pH (‐log[H^+]) values were used to obtain the equilibrium H^+ concentration from the pH values measured in the titration experiments (A = 0.02). For the equilibrium calculations, the stoichiometric water ionic product (pK w) was also needed in order to calculate [OH^−] values under basic conditions. The VNaOH – pHread data pairs of the HCl – NaOH titration obtained in the pH range 10.5–12.0 were used to calculate the pK w value (pK w = 13.83).
The stability and protonation constants of Ca(II)-, Zn(II)-, Cu(II)- and Gd(III)-complexes of rac-L1, ent-L1, rac-L2 and ent-L2, defined by Equations (S2) and (S3), were investigated by pH-potentiometry, spectrophotometry and ^1H NMR relaxometry at 25 °C in 0.15 M NaCl solution.
where i=0, 1, 2,…5. The KML and KMHiL values characterizing the formation of Ca(II)-, Zn(II)-, Cu(II)- and Gd(III)-complexes with rac-L1, ent-L1, rac-L2 and ent-L2 ligands have been calculated from the pH-potentiometric titration data obtained at 1:1 metal to ligand concentration ratios. In calculating the equilibrium constants, the best fitting of the mL NaOH – pH data has been obtained by assuming the formation of ML, MHL, MH2L, MH3L, MH4L, MH5L and MLH-1 species. The formation of the deprotonated [GdLH-1]^- complexes with rac-L2 and ent-L2 ligands takes place at pH>9.0, as indicated by the base consumption in the titration curves. This deprotonation of the Gd(III)-complexes occurs on the inner-sphere water molecule.

Data set [2] is described as follows: Stability, protonation and conditional stability constants (pGd) of Gd(III)-complexes (out-of-cell pH-potentiometry, 1H NMR relaxometry, competition with AAZTA). It counts as physicochemical. The note with it: for logK^c GdL: conditional stability constant at pH 7.4; for logKGdLH-1: deprotonation of inner-sphere water; for pGd: pGd = -log[Gd^3+]free, [Gd^3+]tot = 1 µM, [L]tot = 10 µM; for pGd / logK^cGdL and pGd higher than that of the parent [Gd(PCTA)] / conditional stability higher than that of the racemic counterparts: pH 7.4; for conditional stability higher than that of the racemic counterparts: logK^c GdL and pGd; for stability constant of Gd(III)-complex higher than that of the racemic complex: vs [Gd(rac-L1)]3- and [Gd(rac-L2)]; for *logKGd(H2L): diprotonated out-of-cage intermediate. Here is the method:
as §1, §2
The stability constant of Gd(III)‐complexes with rac‐L2 and ent‐L2 ligands were determined by the measurement of the proton relaxation rates (r 1) studying the competition reaction of rac‐L2 and ent‐L2 ligands with AAZTA for Gd(III) ion at pH = 4.0 in 0.15 M NaCl solution. In these experiments, the concentration of Gd^3+, rac‐L2, and ent‐L2 ligands was 2.0 mM, while that of the AAZTA was varied between 1.0 and 6.0 mM (5 × 1.5 mL samples). The pH was adjusted to pH 4.0 by stepwise addition of concentrated NaOH or HCl solutions. The samples were kept at 70 °C for a month and then at 25°C for two months in order to attain the equilibrium (the time needed to reach the equilibria was determined by ^1H‐NMR relaxometry). ^1H‐NMR relaxometric measurement of Gd(III) – rac‐L2 – AAZTA and Gd(III) – ent‐L2 – AAZTA systems were performed with a Bruker Avance III 400 (9.4 T) equipped with BB inverse z gradient probe (5 mm). […]

For the compound `O=C(CCC(C(=O)O)N1CCN(C(CCC(=O)NCC(O)CO)C(=O)O)Cc2cccc(n2)CN(C(CCC(=O)NCC(O)CO)C(=O)O)CC1)NCC(O)CO` (racemic) [rac‐L2], in data set [1], the “logK ZnL” value is 18.66 (3) and the logKZnHL was 3.77 (3). Also, in data set [2] (0.15 M NaCl, 25 °C), the “logK GdL” value was 18.96 (7) and the logKGdLH-1 is given as 11.15 (4). In addition, in data set [2] (0.15 M NaCl), the “logK^c GdL” value turned out to be 16.76 and the pGd is given as 17.70. Also, the “logK^cGdL and pGd higher than that of the parent [Gd(PCTA)]” value (from here on “logK^cGdL and pGd higher than that”) in data set [2] is 0.6 – 1.2 logK unit.
As for `O=C([O-])CCC(C(=O)[O-])N1CCN(C(CCC(=O)[O-])C(=O)[O-])Cc2cccc(n2)CN(C(CCC(=O)[O-])C(=O)[O-])CC1.[Gd+3]` (racemic) [[Gd(ent‐L1)]^3−], the “conditional stability higher than that of the racemic counterparts” value in data set [2] was 0.6 – 1.5 logK unit.
Still for that read-out and setting: the figure for `O=C(CCC(C(=O)[O-])N1CCN(C(CCC(=O)NCC(O)CO)C(=O)[O-])Cc2cccc(n2)CN(C(CCC(=O)NCC(O)CO)C(=O)[O-])CC1)NCC(O)CO.[Gd+3]` (stereo not drawn) [[Gd(ent‐L2)]] is 0.6 – 1.5 logK unit.
For `O=C(CCC(C(=O)O)N1CCN(C(CCC(=O)NCC(O)CO)C(=O)O)Cc2cccc(n2)CN(C(CCC(=O)NCC(O)CO)C(=O)O)CC1)NCC(O)CO` (stereo not drawn) [ent‐L2], in data set [1], the “logK ZnL” value is given as 20.13 (3) and the logKZnHL is 3.27 (3). Moreover, in data set [2] (0.15 M NaCl, 25 °C), the “logK GdL” value is on record as 20.36 (3) and the logKGdLH-1 is recorded as 11.66 (1). Further, in data set [2] (0.15 M NaCl), the “logK^c GdL” value was 17.31 and the pGd stood at 18.27. In data set [2], the “logK^cGdL and pGd higher than that” value is 0.6 – 1.2 logK unit; the “stability constant of Gd(III)-complex higher than that of the racemic complex” value was found to be 1.5 logK unit.
For the compound `O=C(O)CCC(C(=O)O)N1CCN(C(CCC(=O)O)C(=O)O)Cc2cccc(n2)CN(C(CCC(=O)O)C(=O)O)CC1` (racemic) [rac‐L1, 2,2’,2’’-[3,6,9,15-tetraazabicyclo[9.3.1]pentadeca-1(15),11,13-triene-3,6,9-triyl]tripentanedioic acid], in data set [1], the “logK ZnL” value is reported as 19.54(2), the logKZnH2L is listed as 5.01 (2), the logKZnH3L is 3.91 (3) and the logKZnH4L is reported as 3.88 (3). Further, the logKZnHL in data set [1] is 5.24 (4). In data set [2] (0.15 M NaCl, 25 °C), the “logK GdL” value was 18.65(5), the logKGdH2L was 4.43 (3), the logKGdH3L was 4.35 (3) and the logKGdH4L is given as 2.25 (3). Further, in data set [2] (0.15 M NaCl, 25 °C), the logKGdHL is listed as 5.32 (2) and the “*logKGd(H2L)” value is listed as 3.58 (2). In data set [2] (0.15 M NaCl), the “logK^c GdL” value is listed as 15.34 and the pGd amounted to 16.33.
On to `O=C(O)CCC(C(=O)O)N1CCN(C(CCC(=O)O)C(=O)O)Cc2cccc(n2)CN(C(CCC(=O)O)C(=O)O)CC1` (stereo not drawn) [ent‐L1], for which, in data set [1], the “logK ZnL” value was 20.77 (2), the logKZnH2L is given as 4.76 (2), the logKZnH3L is 4.18 (2) and the logKZnH4L is given as 3.29 (2). In addition, in data set [1], the logKZnHL was 5.26 (2). Besides, in data set [2] (0.15 M NaCl, 25 °C), the “logK GdL” value was 20.17 (9), the logKGdH2L was 4.52 (1), the logKGdH3L is listed as 4.15 (2) and the logKGdHL is 5.28 (1). In addition, the “*logKGd(H2L)” value in data set [2] (0.15 M NaCl, 25 °C) is 4.00 (3). In data set [2] (0.15 M NaCl), the “logK^c GdL” value is on record as 16.85 and the pGd stood at 17.80. Moreover, in data set [2], the “logK^cGdL and pGd higher than that” value was 0.6 – 1.2 logK unit; the “stability constant of Gd(III)-complex higher than that of the racemic complex” value is 1.5 logK unit.
